# Square brackets hold non-standard residues; d marks the D form. Ends that are not written are not given here. Peptide text beside a SMILES is read from it. Cit = NC(=O)NCCC[C@H](N)C(=O)O
# Assays:
# Assay in all cases: HLA class II peptide binding, inhibition of radiolabeled peptide binding to purified MHC; as to IC50 DRB1*01:01: competition with radiolabeled peptide (0.1–1 nM); as to IC50 DRB1*04:01: competition with radiolabeled peptide (0.1–1 nM)
# DRB1*11:01 = DRB1*11:01 (Homo sapiens, UniProt P01903+P01911, A100R/A169T/A87E/I96F/K41T/L162R/M171V/P40S/Q125H/Q178H/Q39Y/Q99D/R42S/S66Y/T262R/V115G/W38E); settings: SE-, competition with radiolabeled peptide, two-day incubation, three or more independent experiments
# DRB1*12:01 = DRB1*12:01 (Homo sapiens, UniProt P01903+P01911, A100R/A169T/D57E/D86V/F55L/H45Y/K41T/L162R/M171V/P40S/Q125H/Q178H/Q39Y/Q99D/R42G/S66L/T262R/V114A/V67L/W38E/Y59H/Y61H/Y89S); settings: SE-, competition with radiolabeled peptide, two-day incubation, three or more independent experiments
# DRB1*08:02 = DRB1*08:02 (Homo sapiens, UniProt P01903+P01911, A100R/A103L/A169T/F76Y/H45Y/I96F/K41T/L162R/M171V/P40S/Q125H/Q178H/Q39Y/Q99D/R218S/R42G/S66Y/V115G/W38E); settings: Other DR, competition with radiolabeled peptide, two-day incubation, three or more independent experiments
# DRB1*04:05 = DRB1*04:05 (Homo sapiens, UniProt P01903+P01911, A100R/A169T/D86S/F76Y/I96L/K127E/L162R/M171V/N62H/P40V/Q125Y/R42H/S133A/S149N/S66Y/V115G/V209L/W38E); settings: SE+, competition with radiolabeled peptide, two-day incubation, three or more independent experiments
# DRB4*01:01 = target: T1, DRB4*01:01 (Homo sapiens, UniProt P01903+P13762, G164S); settings: Other DR, competition with radiolabeled peptide, two-day incubation, three or more independent experiments
# T1 construct: EBV transformed homozygous cell lines were used as sources of MHC molecules; endogenous in cells; host or cells: EBV transformed homozygous cell lines
# HLA-DRB1*01:01 = target: T2, HLA-DRB1*01:01 (Homo sapiens, UniProt P01903+P01911, A100R/D57E/F55L/F60I/F76Y/I96L/L162R/M171V/P40L/Q125E/R42F/V115G/Y59C); settings: read-out: IC50 DRB1*01:01; also: competition with radiolabeled peptide (0.1–1 nM)
# T2 construct: EBV transformed homozygous cell lines were used as sources of MHC molecules; endogenous in cells; host or cells: EBV transformed homozygous cell lines
# DRB1*15:01 = target: T3, DRB1*15:01 (Homo sapiens, UniProt P01903+P01911); settings: SE-, competition with radiolabeled peptide, two-day incubation, three or more independent experiments
# T3 construct: EBV transformed homozygous cell lines were used as sources of MHC molecules; endogenous in cells; host or cells: EBV transformed homozygous cell lines
# DRB1*03:01 = DRB1*03:01 (Homo sapiens, UniProt P01903+P01911, A100K/A102G/A103R/A169T/F55Y/I96L/K41T/L162R/M171V/P40S/Q125H/Q178H/Q39Y/R42S/S66N/T106N/T262R/W38E/Y61H); settings: Other DR, competition with radiolabeled peptide, two-day incubation, three or more independent experiments
# DRB3*01:01 = target: T4, DRB3*01:01 (Homo sapiens, UniProt P01903+P79483); settings: Other DR, competition with radiolabeled peptide, two-day incubation, three or more independent experiments
# T4 construct: EBV transformed homozygous cell lines were used as sources of MHC molecules; endogenous in cells; host or cells: EBV transformed homozygous cell lines
# DRB1*09:01 = DRB1*09:01 (Homo sapiens, UniProt P01903+P01911, A100R/A103E/D57H/D86V/F55Y/F60I/F76Y/I96F/K127E/L162R/M171V/P40D/Q125H/Q99R/R33Q/R42F/S133A/S66N/T210M/V115G/W38K/Y107V/Y59G/Y89S); settings: Other DR, competition with radiolabeled peptide, two-day incubation, three or more independent experiments
# DRB1*13:02 = DRB1*13:02 (Homo sapiens, UniProt P01903+P01911, A100E/A169T/K41T/L162R/M171V/P40S/Q125H/Q178H/Q39Y/Q99D/R42S/S66N/T262R/V115G/W38E/Y61H); settings: SE-, competition with radiolabeled peptide, two-day incubation, three or more independent experiments
# DRB1*10:01 = DRB1*10:01 (Homo sapiens, UniProt P01903+P01911, A100R/A169T/D57E/F55L/F60V/F69Y/F76Y/I96L/L162R/M171V/P40V/Q260P/Q39E/Q99R/R195Q/R42F/S149N/S66Y/T210M/V115G/V67A/W38E/Y59R/Y61H); settings: SE+, competition with radiolabeled peptide, two-day incubation, three or more independent experiments
# DQB1*03:01 = DQB1*03:01 (Homo sapiens, UniProt P01909+P01920); settings: DQ, competition with radiolabeled peptide, two-day incubation, three or more independent experiments
# DQB1*03:01, sequence (P01920 33-261, other chains not shown): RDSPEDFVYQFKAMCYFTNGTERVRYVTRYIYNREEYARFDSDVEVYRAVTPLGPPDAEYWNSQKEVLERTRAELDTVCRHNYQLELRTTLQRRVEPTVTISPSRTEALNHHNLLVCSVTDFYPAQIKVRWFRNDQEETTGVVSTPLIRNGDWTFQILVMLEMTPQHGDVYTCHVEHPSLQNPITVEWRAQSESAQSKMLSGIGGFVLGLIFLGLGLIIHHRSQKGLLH
# DRB1*04:04 = DRB1*04:04 (Homo sapiens, UniProt P01903+P01911, A100R/A169T/F76Y/I96L/K127E/L162R/M171V/N62H/P40V/Q125Y/R42H/S133A/S149N/S66Y/V209L/W38E); settings: SE+, competition with radiolabeled peptide, two-day incubation, three or more independent experiments
# DRB1*04:02 = DRB1*04:02 (Homo sapiens, UniProt P01903+P01911, A100E/A169T/F76Y/K127E/L162R/M171V/N62H/P40V/Q125Y/Q99D/R42H/S133A/S149N/S66Y/V209L/W38E); settings: SE-, competition with radiolabeled peptide, two-day incubation, three or more independent experiments
# DRB5*01:01 = target: T5, DRB5*01:01 (Homo sapiens, UniProt P01903+Q30154); settings: Other DR, competition with radiolabeled peptide, two-day incubation, three or more independent experiments
# T5 construct: EBV transformed homozygous cell lines were used as sources of MHC molecules; endogenous in cells; host or cells: EBV transformed homozygous cell lines
# DRB1*16:02 = DRB1*16:02 (Homo sapiens, UniProt P01903+P01911, A100R/F76Y/I96L/Q99D/V115G); settings: SE-, competition with radiolabeled peptide, two-day incubation, three or more independent experiments
# HLA-DRB1*04:01 = target: T6, HLA-DRB1*04:01 (Homo sapiens, UniProt P01903+P01911, A100K/A169T/F76Y/I96L/K127E/L162R/M171V/N62H/P40V/Q125Y/R42H/S133A/S149N/S66Y/V115G/V209L/W38E); settings: read-out: IC50 DRB1*04:01; also: competition with radiolabeled peptide (0.1–1 nM)
# T6 construct: EBV transformed homozygous cell lines were used as sources of MHC molecules; endogenous in cells; host or cells: EBV transformed homozygous cell lines
# DPB1*04:01 = target: T7, DPB1*04:01 (Homo sapiens, UniProt P04440+P20036); settings: DP; purified MHC, competition with radiolabeled peptide, two-day incubation, three or more independent experiments
# T7 construct: EBV transformed homozygous cell lines were used as sources of MHC molecules; endogenous in cells; host or cells: EBV transformed homozygous cell lines
# T7 sequence (P04440 30-258): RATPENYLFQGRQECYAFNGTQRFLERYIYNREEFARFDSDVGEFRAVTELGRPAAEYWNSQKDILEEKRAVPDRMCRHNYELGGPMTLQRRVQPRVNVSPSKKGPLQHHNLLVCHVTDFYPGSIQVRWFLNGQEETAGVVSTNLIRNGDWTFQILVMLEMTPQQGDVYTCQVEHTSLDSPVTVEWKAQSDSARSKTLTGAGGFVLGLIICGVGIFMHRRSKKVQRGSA
# T7 sequence (P20036 29-260 partner): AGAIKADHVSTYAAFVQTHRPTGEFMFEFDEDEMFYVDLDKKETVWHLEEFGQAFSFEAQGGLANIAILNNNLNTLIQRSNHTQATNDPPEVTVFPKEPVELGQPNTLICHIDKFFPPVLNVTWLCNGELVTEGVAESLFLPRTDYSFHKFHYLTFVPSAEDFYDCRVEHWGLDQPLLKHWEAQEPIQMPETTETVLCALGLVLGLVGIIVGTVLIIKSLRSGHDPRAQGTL
# DRB3*02:02 = DRB3*02:02 (Homo sapiens, UniProt P01903+P79483, A212P/D57E/F66Y/L67A/R103Q/R218S/R40L/S89Y/T80R/V86D/Y55F/Y59H); settings: Other DR, competition with radiolabeled peptide, two-day incubation, three or more independent experiments
# DRB1*07:01 = DRB1*07:01 (Homo sapiens, UniProt P01903+P01911, A100R/A102G/A103Q/D57E/D86V/E43K/F76Y/K127E/L162R/M171V/P40G/Q125H/Q99D/R33Q/R42Y/R54Q/S133A/S66F/T210M/V115G/Y107V/Y59L/Y89S); settings: Other DR, competition with radiolabeled peptide, two-day incubation, three or more independent experiments
IC50 (DRB1*11:01) [nM],IC50 (DRB1*12:01) [nM],IC50 (DRB1*08:02) [nM],IC50 (DRB1*04:05) [nM],IC50 (DRB4*01:01) [nM],IC50 (HLA-DRB1*01:01) [nM],IC50 (DRB1*15:01) [nM],IC50 (DRB1*03:01) [nM],IC50 (DRB3*01:01) [nM],IC50 (DRB1*09:01) [nM],IC50 (DRB1*13:02) [nM],IC50 (DRB1*10:01) [nM],IC50 (DQB1*03:01) [nM],IC50 (DRB1*04:04) [nM],IC50 (DRB1*04:02) [nM],IC50 (DRB5*01:01) [nM],IC50 (DRB1*16:02) [nM],IC50 (HLA-DRB1*04:01) [nM],IC50 (DPB1*04:01) [nM],IC50 (DRB3*02:02) [nM],further results,Compound
8920,2220,275,54,4,9.5,5.4,25900,> 30000,353,15000,35,2010,9,14,1360,118,1.8,> 30000,> 30000,IC50 (DRB1*07:01): 7310 nM,CC(C)C[C@H](NC(=O)[C@H](CCCNC(=N)N)NC(=O)[C@@H](NC(=O)[C@H](C)NC(=O)[C@@H](N)CO)C(C)C)C(=O)N[C@@H](CCCNC(N)=O)C(=O)N[C@@H](CO)C(=O)N[C@@H](CO)C(=O)N[C@H](C(=O)N1CCC[C@H]1C(=O)NCC(=O)N[C@H](C(=O)N[C@@H](CCCNC(=N)N)C(=O)O)C(C)C)C(C)C [Vimentin 66–78 Cit] (H-SAVRL[Cit]SSVPGVR-OH)
9860,> 30000,1040,1770,80,81,1460,159,68,315,3920,375,12800,102,118,8880,23100,9.7,> 30000,262,IC50 (DRB1*07:01): 29600 nM,LQYMRADQAAGGLR [Collagen II 1236–1249 WT]
13900,27800,457,12800,7700,> 30000,> 30000,> 30000,> 30000,11100,> 30000,3580,> 30000,2050,> 30000,23,8430,> 30000,> 30000,> 30000,IC50 (DRB1*07:01): > 30000 nM,NQDFTNRINKLKNS [Fibrinogen 78–91 WT]
11800,15900,53,3960,2020,3260,4.1,12200,> 30000,1410,11400,5170,2100,206,927,2230,1080,13100,> 30000,9090,IC50 (DRB1*07:01): > 30000 nM,SAVRLRSSVPGVR [Vimentin 66–78 WT]
520,1050,3960,183,955,155,1010,530,8460,730,268,643,229,565,501,16,20500,713,26200,245,IC50 (DRB1*07:01): 3030 nM,VVLLVATEGRVRVNSAYQDK [Aggrecan 84–103 WT]

# Reference: publication PMC5421785, “Citrullination only infrequently impacts peptide binding to HLA class II MHC” (PLoS ONE, 2017)
